The values that follow come from publication PMC10017046 (Science Advances, 2023).

Data set [1] concerns GI motility. Particulars: cited from earlier work; for GI motility activity: [51].
For data set [2] the following is noted: cited from earlier work.
The subject of data set [3] is MTLR. To be noted: cited from earlier work.
In data set [4] the target is MTLR L341A (Homo sapiens, UniProt O43193, L341A). Put plainly: IP1 accumulation. It counts as cell-based. Particulars: MTLR-bearing alanine mutation of L341^7.39.
Sequence of MTLR L341A (O43193 whole entry L341A): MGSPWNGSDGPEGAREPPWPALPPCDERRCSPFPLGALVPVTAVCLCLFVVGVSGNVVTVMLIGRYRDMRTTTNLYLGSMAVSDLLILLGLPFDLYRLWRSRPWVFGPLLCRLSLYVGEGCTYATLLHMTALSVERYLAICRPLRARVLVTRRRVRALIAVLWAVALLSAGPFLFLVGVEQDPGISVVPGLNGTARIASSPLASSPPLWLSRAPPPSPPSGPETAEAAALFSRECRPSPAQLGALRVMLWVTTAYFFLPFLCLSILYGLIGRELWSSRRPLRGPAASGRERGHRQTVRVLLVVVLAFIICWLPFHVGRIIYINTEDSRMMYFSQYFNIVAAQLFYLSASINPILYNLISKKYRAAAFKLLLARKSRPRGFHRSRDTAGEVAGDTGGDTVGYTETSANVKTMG
The test system of data set [5] is MTLR. Particulars: cited from earlier work. This is another data set of the same source.
Data set [6] relates to MTLR, substitution of E119^3.33 with aspartic acid. Particulars: E119^3.33 substituted with aspartic acid; ref [16]; cited from earlier work.
For data set [7], the system named is gastroparesis. To be noted: ref [14], [15]; cited from earlier work.
In data set [8] the test system is MTLR. To be noted: camicinal; ref [51]; cited from earlier work.
Data set [9] concerns MTLR. To be noted: cited from earlier work. The source holds these as a separate data set.

Consider `CC[C@H]1OC(=O)[C@H](C)[C@@H](O[C@H]2C[C@@](C)(OC)[C@@H](O)[C@H](C)O2)[C@H](C)[C@@H](O[C@@H]2O[C@H](C)C[C@H](N(C)C)[C@H]2O)[C@](C)(O)C[C@@H](C)CN(C)[C@H](C)[C@@H](O)[C@]1(C)O` [azithromycin], for which, in data set [1] (ref [9]), the GI motility activity result is recorded as “mimic the GI motility activity of motilin”. Moreover, the GI disturbances result in [2] (long-term use, azithromycin, ref [4], [15]) was “often causes unexpected GI disturbances”.

Consider “motilin analog [1-12]: motilin analog [1-12] (FVPIFTYGELQR; Motilin; UniProt P12872 26-37, looked up, fragment)”, for which the “fold increased binding affinity” value in data set [3] (motilin analog [1-12] compared with analog [1-11], ref [4]) is on record as 158 -fold.

With `CC[C@H]1OC(=O)[C@H](C)[C@@H](O[C@H]2C[C@@](C)(OC)[C@@H](O)[C@H](C)O2)[C@H](C)[C@@H](O[C@@H]2O[C@H](C)C[C@H](N(C)C)[C@H]2O)[C@](C)(O)C[C@@H](C)C(=O)[C@H](C)[C@@H](O)[C@]1(C)O` [erythromycin], the “erythromycin activity (in words)” value in [4] is “markedly decreased erythromycin activities”. For the same compound, the “weaker MTLR activation ability than motilin” value in data set [5] (erythromycin versus motilin, ref [4]) is recorded as ~ 1000 -fold. The MTLR agonism result in data set [5] (ref [11]) is “agonist for MTLR”. The “role of ECL2 regions of MTLR for erythromycin” value in data set [3] (ref [16], [35]) is “not critical for erythromycin”. Besides, the ligand activity entry in data set [6] is recorded as “marked decrease in ligand activity”. Moreover, the GI contractile activity result in [1] (ref [9], [10]) was “mimic exogenous motilin in GI contractile activity”. Moreover, the GI motility activity entry in data set [1] (ref [9]) is reported as “mimic the GI motility activity of motilin”. The effectiveness in gastroparesis entry in data set [7] was “effective treatment for gastroparesis”.

With `C[C@H]1CN(Cc2ccc(CC(=O)N3CCC(Nc4cccc(F)c4)CC3)cc2)CCN1` [Camicinal, camicinal], the “oral effectiveness as MTLR agonist” value in data set [5] (ref [51]) is recorded as “orally effective MTLR agonist”. For the same compound, in data set [1] (ref [51]), the gastric cholinergic activity result is recorded as “long-lasting gastric cholinergic activity”. Further, in data set [8], the receptor selectivity entry is recorded as “high receptor selectivity”.

Consider atilmotin, for which the adverse effects entry in [2] (ref [50]) is listed as “not associated with any central nervous system–, respiratory system–, or cardiovascular system–related adverse effects”.

Take `CC[C@H]1OC(=O)[C@H](C)[C@@H](O[C@H]2C[C@@](C)(OC)[C@@H](O)[C@H](C)O2)[C@H](C)[C@@H](O[C@@H]2O[C@H](C)C[C@H](N(C)C(C)C)[C@H]2O)[C@@]2(C)CC(C)=C(O2)[C@H](C)C(=O)[C@]1(C)OC` [mitemcinal]: in data set [9] (ref [54]), the desensitization effect result is on record as “much more improved”.

As for `CC[C@H]1OC(=O)[C@H](C)[C@@H](O[C@H]2C[C@@](C)(OC)C[C@H](C)O2)[C@H](C)[C@@H](O[C@@H]2O[C@H](C)C[C@H](N(C)CC)[C@H]2O)[C@@]2(C)CC(C)=C(O2)[C@H](C)[C@@H](O)[C@H]1C` [ABT-229], the desensitization-inducing effect entry in [9] (compared with motilin and erythromycin, ref [52], [53]) is “more potent desensitization-inducing effect compared with motilin and erythromycin”. In addition, the receptor internalization result in [9] (ref [52], [53]) was “relatively high ability to induce receptor internalization”.
